What was measured:
Assay in all cases: relative viability (nuclei count vs DMSO), 5 days (fraction); higher = more cells survive
AZ628 + Linsitinib = compound: CC1=C(C=C(C=C1)NC(=O)C2=CC(=CC=C2)C(C)(C)C#N)NC3=CC4=C(C=C3)N=CN(C4=O)C [AZ628] + C[C@]1(O)C[C@@H](c2nc(-c3ccc4ccc(-c5ccccc5)nc4c3)c3c(N)nccn32)C1 [Linsitinib] (partner 1 µM)
Summary of the method: (§1)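 Medians of duplicate plates are given as relative viability. That measure is the nuclei count in treated wells divided by the count in vehicle wells. Counts were taken on 4× images of lung cancer cell lines in 1536-well plates, 5 days after pin-tool dosing the day after seeding with one drug alone or a fixed anchor-drug dose plus five library-drug doses (not always all listed) in √10 steps.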

Darinaparsin + OSI-027 = compound: C[As](C)SC[C@H](NC(=O)CC[C@H](N)C(=O)O)C(=O)NCC(=O)O [Darinaparsin] + COc1cccc2cc(-c3nc([C@H]4CC[C@H](C(=O)O)CC4)n4ncnc(N)c34)[nH]c12 [OSI-027] (partner 0.5 µM)
Summary of the method: as §1

Darinaparsin + AZD7762 = compound: C[As](C)SC[C@H](NC(=O)CC[C@H](N)C(=O)O)C(=O)NCC(=O)O [Darinaparsin] + NC(=O)Nc1cc(-c2cccc(F)c2)sc1C(=O)N[C@H]1CCCNC1 [AZD7762] (partner 0.2 µM)
Summary of the method: as §1

[1] = compound: C[As](C)SC[C@H](NC(=O)CC[C@H](N)C(=O)O)C(=O)NCC(=O)O [Darinaparsin] + Nc1nc2[nH]cc(CCc3ccc(C(=O)N[C@@H](CCC(=O)O)C(=O)O)cc3)c2c(=O)[nH]1 [Pemetrexed] (partner 0.2 µM)
Summary of the method: as §1

Row | Cell Line | relative viability (AZ628 + Linsitinib; first compound 0.08 µM) | relative viability (AZ628 + Linsitinib; first compound 0.253 µM) | relative viability (AZ628 + Linsitinib; first compound 0.8 µM) | relative viability (AZ628 + Linsitinib; first compound 2.53 µM) | relative viability (AZ628 + Linsitinib; first compound 8 µM) | relative viability (Darinaparsin + OSI-027; first compound 0.08 µM) | relative viability (Darinaparsin + OSI-027; first compound 0.8 µM) | relative viability (Darinaparsin + OSI-027; first compound 2.53 µM) | relative viability (Darinaparsin + OSI-027; first compound 8 µM) | relative viability (Darinaparsin + AZD7762; first compound 0.08 µM) | relative viability (Darinaparsin + AZD7762; first compound 0.8 µM) | relative viability (Darinaparsin + AZD7762; first compound 2.53 µM) | relative viability (Darinaparsin + AZD7762; first compound 8 µM) | relative viability ([1]; first compound 0.08 µM) | relative viability ([1]; first compound 0.8 µM) | relative viability ([1]; first compound 2.53 µM) | relative viability ([1]; first compound 8 µM)
1 | HCC-15 | 0.918 | 0.799 | 0.704 | 0.695 | 0.414 | 0.737 | 0.59 | 0.694 | 0.707 | 1.48 | 1.32 | 1.11 | 1.12 | 0.223 | 0.221 | 0.211 | 0.213
2 | HCC-44 | 0.701 | 0.646 | 0.672 | 0.678 | 0.666 | 0.511 | 0.514 | 0.454 | 0.378 | 1.02 | 1.03 | 1.08 | 1.05 | 0.7 | 0.607 | 0.669 | 0.721
3 | HCC-78 | 0.704 | 0.524 | 0.479 | 0.499 | 0.518 | 0.375 | 0.394 | 0.379 | 0.372 | 0.587 | 0.706 | 0.58 | 0.699 | 0.953 | 0.884 | 0.838 | 0.964
4 | HCC-366 | 0.551 | 0.454 | 0.426 | 0.543 | 0.114 | 1.23 | 1.1 | 0.955 | 1.62 | 0.339 |  | 0.222 | 0.332 | 0.18 |  | 0.15 | 0.2
5 | HCC-827 | 0.979 | 1.01 | 1.01 | 0.973 | 0.918 | 0.705 | 0.837 | 0.626 | 0.766 | 0.181 | 0.211 | 0.188 | 0.188 | 0.256 | 0.268 | 0.254 | 0.263
6 | HOP-62 | 1.09 | 0.919 | 1.06 | 1.17 | 0.535 | 0.958 | 0.852 | 0.694 | 0.855 | 0.669 | 0.518 | 0.497 | 0.782 | 0.421 | 0.36 | 0.276 | 0.361
7 | LC-2-ad | 0.882 | 0.829 | 0.883 | 0.832 | 0.486 | 0.877 | 0.762 | 0.67 | 0.759 | 1.07 | 0.859 | 0.679 | 1.02 | 0.283 | 0.272 | 0.27 | 0.289
8 | LCLC-103H | 1.02 | 1.15 | 1.15 | 1.07 | 1.04 | 0.481 | 0.465 | 0.414 | 0.531 | 0.813 | 0.74 | 0.727 | 0.777 | 0.466 | 0.422 | 0.448 | 0.422
9 | LK-2 | 0.694 | 0.458 | 0.437 | 0.527 | 0.235 | 0.188 | 0.19 | 0.181 | 0.199 | 0.482 |  | 0.335 | 0.581 | 0.24 |  | 0.286 | 0.329
10 | LOU-NH91 | 0.962 | 1 | 1.07 | 0.964 | 0.66 | 0.74 | 0.689 | 0.711 | 0.79 | 0.808 | 0.745 | 0.719 | 0.775 | 0.414 | 0.431 | 0.314 | 0.384

— the supplement of paper PMC10307832
